PMC4723341, “Ribonuclease H/DNA Polymerase HIV-1 Reverse Transcriptase Dual Inhibitor: Mechanistic Studies on the Allosteric Mode of Action of Isatin-Based Compound RMNC6” (PLoS ONE, 2016)

Legend:
[1] = system: HIV-2 RT; design: method as in PMID 15741178; details: HIV-2 RT versus HIV-1 RT; cited from earlier work
[2] = target: T1, HIV-1 RT-associated RDDP activity, Y501A RT (Human immunodeficiency virus type 1 group M subtype B, UniProt P04585, Y1088A); experiment: biochemical; design: species or system HIV-1 group M subtype B
T1 construct: The 1:1 ration between the p66/p51 subunits was also verified; made in house; host or cells: E. coli M15

[3] = target: T2, HIV-1 RT-associated RDDP activity, K103N RT (Human immunodeficiency virus type 1 group M subtype B, UniProt P04585, K690N); experiment: RDDP activity assay, K103N RT; format: biochemical, HIV-1 group M subtype B
T2 construct: The 1:1 ration between the p66/p51 subunits was also verified; made in house; host or cells: E. coli M15

[4] = target: T3, HIV-1 RT-associated RDDP activity, Y181C RT (Human immunodeficiency virus type 1 group M subtype B, UniProt P04585, Y768C); experiment: RDDP activity assay, Y181C RT; format: biochemical, HIV-1 group M subtype B
T3 construct: The 1:1 ration between the p66/p51 subunits was also verified; made in house; host or cells: E. coli M15

[5] = target: T4, HIV-1 RT RNA-dependent DNA polymerase activity (Human immunodeficiency virus type 1 group M subtype B, UniProt P04585); experiment: Yonetani-Theorell analysis of RMNC6 and EFV on RDDP function; format: biochemical
T4 construct: The 1:1 ration between the p66/p51 subunits was also verified; made in house; host or cells: E. coli M15
Description: RNA-dependent DNA polymerase (RDDP) activity was measured as described in 25 μL volume containing 60 mM Tris-HCl buffer pH 8.1, 8 mM MgCl2, 60 mM KCl, 13 mM DTT, 2.5 μM poly(A)-oligo(dT), 100 μM dTTP, increasing concentrations of inhibitors, whose dilution were made in water, and different amounts of enzymes according to a linear range of dose-response curve: 6 ng wt RT; 30 ng K103N RT; 12 ng V106ART; 19 ng V108A RT; 1.51.5 ng Y181C RT; 45 ng Y188A RT; 15 ng Y188L RT; 30 ng E224A RT; 15 ng P225A RT; 18 ng P226A RT; 23 ng F227A RT; 15 ng L228A RT; 30 ng W229A RT; 30 ng M230A RT; 15 ng G231A RT; 15 ng N474A RT; 15 ng Y501A RT; 15 ng A502F RT; 19 ng A508V RT; 38 ng HIV-1 group O RT. After enzyme addition, the reaction mixture was incubated for 30 min at 37°C and the stopped by addition of EDTA. Reaction products were detected by picogreen addition and measured with a multilabel counter plate reader Victor 3 (Perkin Elmer model 1420–051) equipped with filters for 502/523 nm (excitation/emission wavelength). The Yonetani-Theorell analysis was performed as described previously.

[6] = system: HIV-1 RT-associated RDDP activity, M230A RT; experiment: biochemical; design: species or system HIV-1 group M subtype B; details: M230A RT
[7] = target: T5, HIV-1 RT-associated RDDP activity, M230A RT (Human immunodeficiency virus type 1 group M subtype B, UniProt P04585, M817A); experiment: biochemical; design: species or system HIV-1 group M subtype B
T5 construct: The 1:1 ration between the p66/p51 subunits was also verified; made in house; host or cells: E. coli M15

[8] = target: T6, HIV-1 RT-associated RDDP activity, A502F RT (Human immunodeficiency virus type 1 group M subtype B, UniProt P04585, A1089F); experiment: biochemical; design: species or system HIV-1 group M subtype B
T6 construct: The 1:1 ration between the p66/p51 subunits was also verified; made in house; host or cells: E. coli M15

[9] = system: HIV-1 RT-associated RDDP activity, L228A RT; experiment: biochemical; design: species or system HIV-1 group M subtype B; details: L228A RT
[10] = target: T7, HIV-1 RT-associated RDDP activity, L228A RT (Human immunodeficiency virus type 1 group M subtype B, UniProt P04585, L815A); experiment: biochemical; design: species or system HIV-1 group M subtype B
T7 construct: The 1:1 ration between the p66/p51 subunits was also verified; made in house; host or cells: E. coli M15

[11] = system: HIV-1 RT-associated RDDP activity, Y188A RT; experiment: biochemical; design: species or system HIV-1 group M subtype B; details: Y188A RT
[12] = target: T8, HIV-1 RT-associated RDDP activity, Y188A RT (Human immunodeficiency virus type 1 group M subtype B, UniProt P04585, Y775A); experiment: biochemical; design: species or system HIV-1 group M subtype B
T8 construct: The 1:1 ration between the p66/p51 subunits was also verified; made in house; host or cells: E. coli M15

[13] = target: DNA polymerase activity of HIV-1 group O RT and wild-type and mutant HIV-1 group M subtype B RTs; experiment: RDDP assays, HIV-1 group O RT and wild-type and mutant HIV-1 group M subtype B RTs together; format: biochemical; details: wild-type and mutant (K103N, Y181C, Y188L) group M subtype B RTs, read-out: IC50 RDDP, range over all enzymes
[14] = target: T9, HIV-1 RT-associated RDDP activity, E224A RT (Human immunodeficiency virus type 1 group M subtype B, UniProt P04585, E811A); experiment: biochemical; design: species or system HIV-1 group M subtype B
T9 construct: The 1:1 ration between the p66/p51 subunits was also verified; made in house; host or cells: E. coli M15

**Q.** For `CC(C)c1ccc(O)c(=O)c(O)c1` [BTP, β-thujaplicinol, reference compound], which “Times less susceptible than the HIV-1 enzyme” value [1] is on record?
**A.** about 3.7

**Q.** Which results are given for `N#Cc1ccc(-c2csc(NN=C3C(=O)Nc4ccccc43)n2)cc1` [RMNC6, (Z)-4-(2-(2-(2-oxoindolin-3-ylidene)hydrazinyl)thiazol-4-yl)benzonitrile]?
**A.** IC50 [2]: 6.6 ± 0.1 µM; Fold of increase of RDDP IC50 with respect to wt RT ([2]; Y501A RT): 0.7; IC50 [3]: 13.6 ± 1 µM; IC50 [4]: 5.4 ± 0.3 µM; Mutual exclusivity of inhibition (Yonetani-Theorell, words) ([5]; RMNC6 combined with EFV (4, 8, 16 nM) on RDDP function): not mutually exclusive; Interaction constant α (Yonetani-Theorell) ([5]; combined effects of RMNC6 and EFV on RDDP function): 1.2; Fold of increase of RDDP IC50 with respect to wt RT [6]: 1.5; IC50 [7]: 15 ± 3.5 µM; IC50 [8]: 17.1 ± 2.1 µM; Fold of increase of RDDP IC50 with respect to wt RT ([8]; A502F RT): 1.8; Fold of increase of RDDP IC50 with respect to wt RT [9]: 1.3; IC50 [10]: 13.1 ± 1.9 µM; Fold of increase of RDDP IC50 with respect to wt RT [11]: 2.1; IC50 [12]: 20.9 ± 4 µM; IC50 [13]: 5.4 to 20.1 µM; IC50 [14]: 13.8 ± 4.2 µM; Fold of increase of RDDP IC50 with respect to wt RT ([14]; E224A RT): 1.4
